Laboratory results taken from patent publication US12187728B2 (Raze Therapeutics, Inc., priority 2015, dated 2025).

The compounds below were run against T1, Human MTHFD2 (Homo sapiens, UniProt P13995) (assay: MTHFD2 Activity Assay (dehydrogenase activity, diaphorase/resazurin coupled fluorescence)). Settings: inhibitory activity (IC50 and/or binding constant); 0.2 nM MTHFD2, 11 concentrations.
T1 construct: residues 36-350 in Uniport ID P13995; His6 (N); made in house; host or cells: E. coli
T1 sequence (P13995 36-350): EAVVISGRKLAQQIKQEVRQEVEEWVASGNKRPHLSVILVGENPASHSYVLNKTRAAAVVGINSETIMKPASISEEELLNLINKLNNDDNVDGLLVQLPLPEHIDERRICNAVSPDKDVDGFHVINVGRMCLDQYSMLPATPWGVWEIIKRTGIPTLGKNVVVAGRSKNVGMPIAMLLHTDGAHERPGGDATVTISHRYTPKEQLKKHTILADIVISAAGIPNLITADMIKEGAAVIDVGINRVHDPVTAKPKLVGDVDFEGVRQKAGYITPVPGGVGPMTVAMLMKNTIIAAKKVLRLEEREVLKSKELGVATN
Assay type: biochemical
Procedure, shortened: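 His6-tagged MTHFD2 (res. 36-350), E. coli-expressed, at 0.2 nM preincubated with compound 15 min in Hepes pH 8.0/MgCl2/KH2PO4 buffer; 70 μM CH2-THF, 1 mM NAD+ added with resazurin/diaphorase, 30 min, EDTA stop. Resorufin fluorescence (ex 525/em 598); IC50 from 11-point 4-parameter fit.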

`Cn1c(Cn2c(=O)c3c(nc(N4CCC(O)CC4)n3C)n(C)c2=O)cc2cc(Cl)ccc21` [Example 196, 1-((5-chloro-1-methyl-1H-indol-2-yl)methyl)-8-(4-hydroxypiperidin-1-yl)-3,7-dimethyl-1H-purine-2,6(3H,7H)-dione] and `Cn1c(Cn2c(=O)c3c(nc(N4CC(O)C4)n3C)n(C)c2=O)cc2cc(Cl)ccc21` [Example 197, 1-((5-chloro-1-methyl-1H-indol-2-yl)methyl)-8-(3-hydroxyazetidin-1-yl)-3,7-dimethyl-1H-purine-2,6(3H,7H)-dione] fall in the same range of IC50: 10 to 1000 nM for the first, 10 to 1000 nM for the second.

Compared with `Cn1c(N2CCC(O)CC2)nc2c1c(=O)n(Cc1cc3cc(Cl)ccc3[nH]1)c(=O)n2C` [Example 198, 1-((5-chloro-1H-indol-2-yl)methyl)-8-(4-hydroxypiperidin-1-yl)-3,7-dimethyl-1H-purine-2,6(3H,7H)-dione], `Cn1c(N2CC(O)C2)nc2c1c(=O)n(Cc1cc3cc(Cl)ccc3[nH]1)c(=O)n2C` [Example 199, 1-((5-chloro-1H-indol-2-yl)methyl)-8-(3-hydroxyazetidin-1-yl)-3,7-dimethyl-1H-purine-2,6(3H,7H)-dione] is higher in IC50: 10 to 1000 nM for the first, 1000 to 5000 nM for the second.

First: Cn1c(Nc2cccnn2)nc2c1c(=O)n(Cc1cc3cc(Cl)ccc3[nH]1)c(=O)n2C [Example 200, 1-((5-chloro-1H-indol-2-yl)methyl)-3,7-dimethyl-8-(pyridazin-3-ylamino)-1H-purine-2,6(3H,7H)-dione]
Second: Cn1c(Nc2ccncn2)nc2c1c(=O)n(Cc1cc3cc(Cl)ccc3[nH]1)c(=O)n2C [Example 208, 1-((5-chloro-1H-indol-2-yl)methyl)-3,7-dimethyl-8-(pyrimidin-4-ylamino)-1H-purine-2,6(3H,7H)-dione]
The IC50 of the first is higher: 1000 to 5000 nM for the first, 10 to 1000 nM for the second. The second is the more potent here.

`Cn1c(Nc2cccnn2)nc2c1c(=O)n(Cc1cc3ccccc3[nH]1)c(=O)n2C` [Example 201, 1-((1H-indol-2-yl)methyl)-3,7-dimethyl-8-(pyridazin-3-ylamino)-1H-purine-2,6(3H,7H)-dione] and `Cn1c(Nc2ccncn2)nc2c1c(=O)n(Cc1cc3ccccc3[nH]1)c(=O)n2C` [Example 216, 1-((1H-indol-2-yl)methyl)-3,7-dimethyl-8-(pyrimidin-4-ylamino)-1H-purine-2,6(3H,7H)-dione] fall in the same range of IC50: 10 to 1000 nM for the first, 10 to 1000 nM for the second.

`Cc1ccc2[nH]c(Cn3c(=O)c4c(nc(Nc5ncn[nH]5)n4C)n(C)c3=O)cc2c1` [Example 202, 8-(1H-1,2,4-triazol-5-ylamino)-3,7-dimethyl-1-((5-methyl-1H-indol-2-yl)methyl)-1H-purine-2,6(3H,7H)-dione] and `Cn1c(Nc2ncn[nH]2)nc2c1c(=O)n(Cc1cc3cc(Cl)ccc3[nH]1)c(=O)n2C` [Example 207, 8-(1H-1,2,4-triazol-5-ylamino)-1-((5-chloro-1H-indol-2-yl)methyl)-3,7-dimethyl-1H-purine-2,6(3H,7H)-dione] fall in the same range of IC50: 1000 to 5000 nM for the first, 1000 to 5000 nM for the second.

Compared with `Cn1c(Cn2c(=O)c3c(nc(Nc4cccnn4)n3C)n(C)c2=O)cc2cc(Cl)ccc21` [Example 203, 1-((5-chloro-1-methyl-1H-indol-2-yl)methyl)-3,7-dimethyl-8-(pyridazin-3-ylamino)-1H-purine-2,6(3H,7H)-dione], `Cn1c(Cn2c(=O)c3c(nc(Nc4ccncn4)n3C)n(C)c2=O)cc2cc(Cl)ccc21` [Example 204, 1-((5-chloro-1-methyl-1H-indol-2-yl)methyl)-3,7-dimethyl-8-(pyrimidin-4-ylamino)-1H-purine-2,6(3H,7H)-dione] is lower in IC50: 5000 to 10000 nM for the first, 10 to 1000 nM for the second. The second is the more potent here.

Compared with `Cc1ccc2[nH]c(Cn3c(=O)c4c(nc(Nc5ccncn5)n4C)n(C)c3=O)cc2c1` [Example 205, 3,7-dimethyl-1-((5-methyl-1H-indol-2-yl)methyl)-8-(pyrimidin-4-ylamino)-1H-purine-2,6(3H,7H)-dione], `Cc1ccc2[nH]c(Cn3c(=O)c4c(nc(N)n4C)n(C)c3=O)cc2c1` [Example 232, 8-amino-3,7-dimethyl-1-((5-methyl-1H-indol-2-yl)methyl)-1H-purine-2,6(3H,7H)-dione] is higher in IC50: 10 to 1000 nM for the first, > 10000 nM for the second. The first is the more potent here.

`Cn1c(Nc2cc[nH]c(=O)n2)nc2c1c(=O)n(Cc1cc3cc(Cl)ccc3[nH]1)c(=O)n2C` [Example 206, 1-((5-chloro-1H-indol-2-yl)methyl)-3,7-dimethyl-8-(2-oxo-1,2-dihydropyrimidin-4-ylamino)-1H-purine-2,6(3H,7H)-dione] and `Cn1c(Cn2c(=O)c3c(nc(Nc4cc[nH]c(=O)n4)n3C)n(C)c2=O)cc2cc(Cl)ccc21` [Example 224, 1-((5-chloro-1-methyl-1H-indol-2-yl)methyl)-3,7-dimethyl-8-(2-oxo-1,2-dihydropyrimidin-4-ylamino)-1H-purine-2,6(3H,7H)-dione] fall in the same range of IC50: 10 to 1000 nM for the first, 10 to 1000 nM for the second.

`Cc1ccc2[nH]c(Cn3c(=O)c4c(nc(CCO)n4C)n(C)c3=O)cc2c1` [Example 210, 8-(2-hydroxyethyl)-3,7-dimethyl-1-((5-methyl-1H-indol-2-yl)methyl)-1H-purine-2,6(3H,7H)-dione] and `Cn1c(CCO)nc2c1c(=O)n(Cc1cc3cc(Cl)ccc3[nH]1)c(=O)n2C` [Example 223, 1-((5-chloro-1H-indol-2-yl)methyl)-8-(2-hydroxyethyl)-3,7-dimethyl-1H-purine-2,6(3H,7H)-dione] fall in the same range of IC50: 1000 to 5000 nM for the first, 1000 to 5000 nM for the second.

First: Cn1c(CCO)nc2c1c(=O)n(Cc1cc3ccccc3[nH]1)c(=O)n2C [Example 212, 1-((1H-indol-2-yl)methyl)-8-(2-hydroxyethyl)-3,7-dimethyl-1H-purine-2,6(3H,7H)-dione]
Second: Cn1c(N)nc2c1c(=O)n(Cc1cc3ccccc3[nH]1)c(=O)n2C [Example 231, 1-((1H-indol-2-yl)methyl)-8-amino-3,7-dimethyl-1H-purine-2,6(3H,7H)-dione]
The IC50 of the first is lower: 1000 to 5000 nM for the first, 5000 to 10000 nM for the second. The first is the more potent here.

First: Cn1c(N[C@H]2CCCNC2=O)nc2c1c(=O)n(Cc1cc3ccccc3[nH]1)c(=O)n2C [Example 213, (S)-1-((1H-indol-2-yl)methyl)-3,7-dimethyl-8-(2-oxopiperidin-3-ylamino)-1H-purine-2,6(3H,7H)-dione]
Second: Cn1c(N[C@@H]2CCCNC2=O)nc2c1c(=O)n(Cc1cc3ccccc3[nH]1)c(=O)n2C [Example 221, (R)-1-((1H-indol-2-yl)methyl)-3,7-dimethyl-8-(2-oxopiperidin-3-ylamino)-1H-purine-2,6(3H,7H)-dione]
The IC50 of the first is lower: 10 to 1000 nM for the first, 1000 to 5000 nM for the second.

`Cn1c(-n2nccc2N)nc2c1c(=O)n(Cc1cc3ccccc3[nH]1)c(=O)n2C` [Example 217, 1-((1H-indol-2-yl)methyl)-8-(5-amino-1H-pyrazol-1-yl)-3,7-dimethyl-1H-purine-2,6(3H,7H)-dione] and `Cc1ccc2[nH]c(Cn3c(=O)c4c(nc(-n5nccc5N)n4C)n(C)c3=O)cc2c1` [Example 218, 8-(5-amino-1H-pyrazol-1-yl)-3,7-dimethyl-1-((5-methyl-1H-indol-2-yl)methyl)-1H-purine-2,6(3H,7H)-dione] fall in the same range of IC50: 10 to 1000 nM for the first, 10 to 1000 nM for the second.

`Cn1c(-n2nccc2N)nc2c1c(=O)n(Cc1cc3cc(Cl)ccc3[nH]1)c(=O)n2C` [Example 219, 8-(5-amino-1H-pyrazol-1-yl)-1-((5-chloro-1H-indol-2-yl)methyl)-3,7-dimethyl-1H-purine-2,6(3H,7H)-dione] and `Cn1c(Cn2c(=O)c3c(nc(-n4nccc4N)n3C)n(C)c2=O)cc2cc(Cl)ccc21` [Example 220, 8-(5-amino-1H-pyrazol-1-yl)-1-((5-chloro-1-methyl-1H-indol-2-yl)methyl)-3,7-dimethyl-1H-purine-2,6(3H,7H)-dione] fall in the same range of IC50: 10 to 1000 nM for the first, 10 to 1000 nM for the second.

`Cn1c(Cn2c(=O)c3c(nc(CCN4CCOCC4)n3C)n(C)c2=O)cc2cc(Cl)ccc21` [Example 225, 1-((5-chloro-1-methyl-1H-indol-2-yl)methyl)-3,7-dimethyl-8-(2-morpholinoethyl)-1H-purine-2,6(3H,7H)-dione] and `Cn1c(CCN2CCOCC2)nc2c1c(=O)n(Cc1cc3cc(Cl)ccc3[nH]1)c(=O)n2C` [Example 229, 1-((5-chloro-1H-indol-2-yl)methyl)-3,7-dimethyl-8-(2-morpholinoethyl)-1H-purine-2,6(3H,7H)-dione] fall in the same range of IC50: 10 to 1000 nM for the first, 10 to 1000 nM for the second.

Compared with `Cn1c(CCN2CCOCC2)nc2c1c(=O)n(Cc1cc3ccccc3[nH]1)c(=O)n2C` [Example 226, 1-((1H-indol-2-yl)methyl)-3,7-dimethyl-8-(2-morpholinoethyl)-1H-purine-2,6(3H,7H)-dione], `Cc1ccc2[nH]c(Cn3c(=O)c4c(nc(CCN5CCOCC5)n4C)n(C)c3=O)cc2c1` [Example 227, 3,7-dimethyl-1-((5-methyl-1H-indol-2-yl)methyl)-8-(2-morpholinoethyl)-1H-purine-2,6(3H,7H)-dione] is higher in IC50: 10 to 1000 nM for the first, 1000 to 5000 nM for the second.

First: Cn1c(Cn2c(=O)c3c(nc(-n4ncnc4N)n3C)n(C)c2=O)cc2cc(Cl)ccc21 [Example 230, 8-(5-amino-1H-1,2,4-triazol-1-yl)-1-((5-chloro-1-methyl-1H-indol-2-yl)methyl)-3,7-dimethyl-1H-purine-2,6(3H,7H)-dione]
Second: Cc1ccc2c(c1)cc(Cn1c(=O)c3c(ncn3C)n(C)c1=O)n2C [Example 233, 1-((1,5-dimethyl-1H-indol-2-yl)methyl)-3,7-dimethyl-1H-purine-2,6(3H,7H)-dione]
The IC50 of the first is lower: 10 to 1000 nM for the first, 5000 to 10000 nM for the second. The first is the more potent here.

`Cn1cnc2c1c(=O)n(Cc1cc3ccccc3[nH]1)c(=O)n2C` [Example 234, 1-((1H-indol-2-yl)methyl)-3,7-dimethyl-1H-purine-2,6(3H,7H)-dione] and `Cn1cnc2c1c(=O)n(Cc1cc3ccccc3n1C)c(=O)n2C` [Example 235, 3,7-dimethyl-1-((1-methyl-1H-indol-2-yl)methyl)-1H-purine-2,6(3H,7H)-dione] fall in the same range of IC50: 1000 to 5000 nM for the first, 1000 to 5000 nM for the second.
